Measured values published in PubChem BioAssay AID1963962 (Molecular Pharmacology Branch, DTP, NCI, 2024).
“And” between values parts separate entries of the source, which are not always exact repeats. Identical values can stand only once.

System: 967376-340-R-J2-PDC multicell spheroid viability
Test: Anticancer human tumor 967376-340-R-J2-PDC patient-derived colon adenocarcinoma cell line growth inhibition [PI3K]
Details: for viability, T/C: stronger effect = lower value
In short: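 Tumor cells were combined with HUVEC and MSCs into spheroids, then dosed with PI3K-inhibitor combinations over half-log ranges capped near clinical Cmax or 10 microM.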

[1] = curve of first compound, second compound 0.00316 µM
[2] = curve of first compound, second compound 0.01 µM
[3] = curve of first compound, second compound 0.0316 µM
[4] = curve of first compound, second compound 0.1 µM
[5] = curve of first compound, second compound 0.316 µM
[6] = curve of first compound, second compound 1 µM
[7] = second compound 0.00316 µM, first compound 0.0316 µM
[8] = second compound 0.00316 µM, first compound 0.1 µM
[9] = second compound 0.01 µM, first compound 0.0316 µM
[10] = second compound 0.01 µM, first compound 0.1 µM
[11] = second compound 0.0316 µM, first compound 0.0316 µM
[12] = second compound 0.0316 µM, first compound 0.1 µM
[13] = second compound 0.0316 µM, first compound 0.316 µM
[14] = second compound 0.0316 µM, first compound 1 µM
[15] = second compound 0.0316 µM, first compound 3.16 µM
[16] = second compound 0.0316 µM, first compound 10 µM
[17] = second compound 0.1 µM, first compound 0.0316 µM
[18] = second compound 0.1 µM, first compound 0.1 µM
[19] = second compound 0.1 µM, first compound 0.316 µM
[20] = second compound 0.1 µM, first compound 1 µM
[21] = second compound 0.1 µM, first compound 3.16 µM
[22] = second compound 0.1 µM, first compound 10 µM
[23] = second compound 0.316 µM, first compound 0.0316 µM
[24] = second compound 0.316 µM, first compound 0.1 µM
[25] = second compound 0.316 µM, first compound 0.316 µM
[26] = second compound 0.316 µM, first compound 1 µM
[27] = second compound 0.316 µM, first compound 3.16 µM
[28] = second compound 0.316 µM, first compound 10 µM
[29] = second compound 1 µM, first compound 0.0316 µM
[30] = second compound 1 µM, first compound 0.1 µM
[31] = second compound 1 µM, first compound 0.316 µM
[32] = second compound 1 µM, first compound 1 µM
[33] = second compound 1 µM, first compound 3.16 µM
[34] = second compound 1 µM, first compound 10 µM
[35] = curve of first compound, second compound 3.16 µM
[36] = curve of first compound, second compound 10 µM
[37] = second compound 3.16 µM, first compound 0.0316 µM
[38] = second compound 3.16 µM, first compound 0.1 µM
[39] = second compound 3.16 µM, first compound 0.316 µM
[40] = second compound 3.16 µM, first compound 1 µM
[41] = second compound 3.16 µM, first compound 3.16 µM
[42] = second compound 3.16 µM, first compound 10 µM
[43] = second compound 10 µM, first compound 0.0316 µM
[44] = second compound 10 µM, first compound 0.1 µM
[45] = second compound 10 µM, first compound 0.316 µM
[46] = second compound 10 µM, first compound 1 µM
[47] = second compound 10 µM, first compound 3.16 µM
[48] = second compound 10 µM, first compound 10 µM
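Further: spheroids exposed to agents for 7 days before read-out.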
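Wherever viability, T/C is given: luminescence used as surrogate of cell viability.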

SMILES: CCCS(=O)(=O)Nc1ccc(F)c(C(=O)c2c[nH]c3ncc(-c4ccc(Cl)cc4)cc23)c1F + CC(Nc1ccc2c(c1)OCCn1cc(N3C(=O)OCC3C(F)F)nc1-2)C(N)=O
- IC50 [1]: > 10 µM
- IC50 [2]: 9.81 µM
- IC50 [3]: > 10 µM
- IC50 [4]: 8.12 µM
- IC50 [5]: > 10 µM
- IC50 [6]: 3.83 µM
- viability, T/C [7]: 87.1%
- viability, T/C [8]: 77.7%
- viability, T/C (second compound 0.00316 µM, first compound 0.316 µM): 98.3%
- viability, T/C (second compound 0.00316 µM, first compound 1 µM): 60.2%
- viability, T/C (second compound 0.00316 µM, first compound 3.16 µM): 81.4%
- viability, T/C (second compound 0.00316 µM, first compound 10 µM): 53.4%
- viability, T/C [9]: 95.5%
- viability, T/C [10]: 86.5%
- viability, T/C (second compound 0.01 µM, first compound 0.316 µM): 88.7%
- viability, T/C (second compound 0.01 µM, first compound 1 µM): 70.3%
- viability, T/C (second compound 0.01 µM, first compound 3.16 µM): 89.4%
- viability, T/C (second compound 0.01 µM, first compound 10 µM): 49.6%
- viability, T/C [11]: 72%
- viability, T/C [12]: 79.6%
- viability, T/C [13]: 65.2%
- viability, T/C [14]: 93.3%
- viability, T/C [15]: 91.9%
- viability, T/C [16]: 67.8%
- viability, T/C [17]: 69.9%
- viability, T/C [18]: 73.8%
- viability, T/C [19]: 80.3%
- viability, T/C [20]: 77.9%
- viability, T/C [21]: 81.5%
- viability, T/C [22]: 44.1%
- viability, T/C [23]: 64.5%
- viability, T/C [24]: 61.3%
- viability, T/C [25]: 73.8%
- viability, T/C [26]: 76.2%
- viability, T/C [27]: 75.2%
- viability, T/C [28]: 37.6%
- viability, T/C [29]: 61.5%
- viability, T/C [30]: 55.5%
- viability, T/C [31]: 58.9%
- viability, T/C [32]: 56%
- viability, T/C [33]: 52.6%
- viability, T/C [34]: 39.5%

SMILES: C=CC(=O)N1CCN(c2nc(=O)n(-c3c(C)ccnc3C(C)C)c3nc(-c4c(O)cccc4F)c(F)cc23)C(C)C1 (stereo not given) + CC(Nc1ncnc2nc[nH]c12)c1cc2cccc(Cl)c2c(=O)n1-c1ccccc1
- IC50 [3]: > 10 µM
- IC50 [4]: > 10 µM
- IC50 [5]: > 10 µM
- IC50 [6]: > 10 µM
- IC50 [35]: > 10 µM
- IC50 [36]: > 10 µM
- viability, T/C [11]: 95.8%
- viability, T/C [12]: 104%
- viability, T/C [13]: 99.1%
- viability, T/C [14]: 102%
- viability, T/C [15]: 96.6%
- viability, T/C [16]: 108%
- viability, T/C [17]: 123%
- viability, T/C [18]: 108%
- viability, T/C [19]: 97.7%
- viability, T/C [20]: 94.2%
- viability, T/C [21]: 106%
- viability, T/C [22]: 104%
- viability, T/C [23]: 105%
- viability, T/C [24]: 107%
- viability, T/C [25]: 107%
- viability, T/C [26]: 104%
- viability, T/C [27]: 86.7%
- viability, T/C [28]: 94.8%
- viability, T/C [29]: 107%
- viability, T/C [30]: 98.3%
- viability, T/C [31]: 100%
- viability, T/C [32]: 97.8%
- viability, T/C [33]: 105%
- viability, T/C [34]: 76.3%
- viability, T/C [37]: 79.7%
- viability, T/C [38]: 91.6%
- viability, T/C [39]: 81.2%
- viability, T/C [40]: 98%
- viability, T/C [41]: 96.2%
- viability, T/C [42]: 86.6%
- viability, T/C [43]: 75.7%
- viability, T/C [44]: 83.9%
- viability, T/C [45]: 75.4%
- viability, T/C [46]: 78.7%
- viability, T/C [47]: 94.4%
- viability, T/C [48]: 91.9%

SMILES: COc1c(OCCCN2CCOCC2)ccc2c3n(c(=NC(=O)c4cnc(N)nc4)nc12)CCN3
- viability, T/C (compound 0.01 µM): 85.7% [middle of 8 runs]
- viability, T/C (compound 0.0316 µM): 79.9% [middle of 8 runs]
- viability, T/C (compound 0.1 µM): 60.7% [middle of 8 runs]
- viability, T/C (compound 0.316 µM): 47.8% [middle of 8 runs]
- viability, T/C (compound 1 µM): 38.5% [middle of 8 runs]
- IC50 (compound alone, run of 06/13/2023): 212 nM [middle of 8 runs]

SMILES: CC(C)n1nc(-c2ccc3oc(N)nc3c2)c2c(N)ncnc21 + CC(Nc1ccc2c(c1)OCCn1cc(N3C(=O)OCC3C(F)F)nc1-2)C(N)=O
- IC50 [1]: > 0.1 µM
- IC50 [2]: > 0.1 µM
- IC50 [3]: 0.0719 µM
- IC50 [4]: 0.0665 µM
- IC50 [5]: 0.0207 µM
- IC50 [6]: 0.0369 µM
- viability, T/C (second compound 0.00316 µM, first compound 0.000316 µM): 82.3%
- viability, T/C (second compound 0.00316 µM, first compound 0.001 µM): 69.7%
- viability, T/C (second compound 0.00316 µM, first compound 0.00316 µM): 69.4%
- viability, T/C (second compound 0.00316 µM, first compound 0.01 µM): 76.4%
- viability, T/C [7]: 73.1%
- viability, T/C [8]: 51.9%
- viability, T/C (second compound 0.01 µM, first compound 0.000316 µM): 106%
- viability, T/C (second compound 0.01 µM, first compound 0.001 µM): 90.1%
- viability, T/C (second compound 0.01 µM, first compound 0.00316 µM): 67.3%
- viability, T/C (second compound 0.01 µM, first compound 0.01 µM): 68.7%
- viability, T/C [9]: 68.1%
- viability, T/C [10]: 43.3%
- viability, T/C (second compound 0.0316 µM, first compound 0.000316 µM): 81.1%
- viability, T/C (second compound 0.0316 µM, first compound 0.001 µM): 87%
- viability, T/C (second compound 0.0316 µM, first compound 0.00316 µM): 65.4%
- viability, T/C (second compound 0.0316 µM, first compound 0.01 µM): 74.4%
- viability, T/C [11]: 60.5%
- viability, T/C [12]: 45.2%
- viability, T/C (second compound 0.1 µM, first compound 0.000316 µM): 67.3%
- viability, T/C (second compound 0.1 µM, first compound 0.001 µM): 79.8%
- viability, T/C (second compound 0.1 µM, first compound 0.00316 µM): 91.5%
- viability, T/C (second compound 0.1 µM, first compound 0.01 µM): 69.5%
- viability, T/C [17]: 56.9%
- viability, T/C [18]: 46.3%
- viability, T/C (second compound 0.316 µM, first compound 0.000316 µM): 57.7%
- viability, T/C (second compound 0.316 µM, first compound 0.001 µM): 61.9%
- viability, T/C (second compound 0.316 µM, first compound 0.00316 µM): 54.6%
- viability, T/C (second compound 0.316 µM, first compound 0.01 µM): 64.7%
- viability, T/C [23]: 44.3%
- viability, T/C [24]: 33.1%
- viability, T/C (second compound 1 µM, first compound 0.000316 µM): 53.9%
- viability, T/C (second compound 1 µM, first compound 0.001 µM): 54.8%
- viability, T/C (second compound 1 µM, first compound 0.00316 µM): 63.8%
- viability, T/C (second compound 1 µM, first compound 0.01 µM): 47.5%
- viability, T/C [29]: 54%
- viability, T/C [30]: 38.4%

SMILES: CCCS(=O)(=O)Nc1ccc(F)c(C(=O)c2c[nH]c3ncc(-c4ccc(Cl)cc4)cc23)c1F
- viability, T/C (compound 0.0316 µM): 102% [middle of 4 runs]
- viability, T/C (compound 0.1 µM): 87.8% [middle of 4 runs]
- viability, T/C (compound 0.316 µM): 94.6% [middle of 4 runs]
- viability, T/C (compound 3.16 µM): 104% [middle of 4 runs]
- viability, T/C (compound 10 µM): 56.4% [middle of 4 runs]
- IC50 (curve of compound): > 10 µM and 9.14 µM

SMILES: Cn1nccc1Nc1nccc(-c2ccn(C(CO)c3ccc(Cl)c(F)c3)c(=O)c2)n1 (stereo not given) + CC(Nc1ncnc2nc[nH]c12)c1cc2cccc(Cl)c2c(=O)n1-c1ccccc1
- IC50 [3]: > 10 µM
- IC50 [4]: > 10 µM
- IC50 [5]: > 10 µM
- IC50 [6]: > 10 µM
- IC50 [35]: > 10 µM
- IC50 [36]: > 10 µM
- viability, T/C [11]: 97.2%
- viability, T/C [12]: 115%
- viability, T/C [13]: 101%
- viability, T/C [14]: 102%
- viability, T/C [15]: 101%
- viability, T/C [16]: 114%
- viability, T/C [17]: 103%
- viability, T/C [18]: 105%
- viability, T/C [19]: 95.9%
- viability, T/C [20]: 128%
- viability, T/C [21]: 128%
- viability, T/C [22]: 106%
- viability, T/C [23]: 107%
- viability, T/C [24]: 115%
- viability, T/C [25]: 114%
- viability, T/C [26]: 76.1%
- viability, T/C [27]: 104%
- viability, T/C [28]: 110%
- viability, T/C [29]: 96.2%
- viability, T/C [30]: 93.3%
- viability, T/C [31]: 87.8%
- viability, T/C [32]: 89%
- viability, T/C [33]: 99%
- viability, T/C [34]: 96.3%
- viability, T/C [37]: 87.5%
- viability, T/C [38]: 85.3%
- viability, T/C [39]: 80.1%
- viability, T/C [40]: 89.3%
- viability, T/C [41]: 99.7%
- viability, T/C [42]: 81.4%
- viability, T/C [43]: 95.7%
- viability, T/C [44]: 73.4%
- viability, T/C [45]: 86.3%
- viability, T/C [46]: 86.7%
- viability, T/C [47]: 76.2%
- viability, T/C [48]: 75.3%
